Results published in publication PMC9596752, “Investigation of anti-diabetic potential and molecular simulation studies of dihydropyrimidinone derivatives” (Frontiers in Endocrinology, 2022).
≈ marks a conversion by molar mass, not a printed value.

Target: α-glucosidase
Assay: in vitro α-glucosidase inhibition assay, absorbance at […] nm
Assay type: biochemical, Saccharomyces cerevisiae

IC50: 1.02 µg/mL (≈ 3.04 µM)
SMILES: O=C1NC2=C(C(=O)N(Cc3ccccc3)C2)C(c2ccc(O)cc2)N1 (stereo not shown) [A, 6-benzyl-4-(4-hydroxyphenyl)-3,4,6,7-tetrahydro-1H-pyrrolo[3,4-d]pyrimidine-2,5-dione]
